Test results: the supplement of paper PMC10307832

How the values were obtained:
Experiment in all cases: relative viability (nuclei count vs DMSO), 5 days (fraction); higher = more cells survive
Darinaparsin + OSI-027 = compound: C[As](C)SC[C@H](NC(=O)CC[C@H](N)C(=O)O)C(=O)NCC(=O)O [Darinaparsin] + COc1cccc2cc(-c3nc([C@H]4CC[C@H](C(=O)O)CC4)n4ncnc(N)c34)[nH]c12 [OSI-027] (partner 0.5 µM)
Summary of the method: (§1)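 Relative viability was taken as the ratio of nuclei in treated wells to nuclei in vehicle wells. Lung cancer cell lines in 1536-well plates received compounds by pin tool one day after seeding, either one drug alone or a fixed anchor-drug dose plus five library-drug doses (not always all listed) in √10 steps. Nuclei were counted on 4× images after 5 days of treatment, and values are medians of duplicate plates.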

AZ628 + Foretinib = compound: CC1=C(C=C(C=C1)NC(=O)C2=CC(=CC=C2)C(C)(C)C#N)NC3=CC4=C(C=C3)N=CN(C4=O)C [AZ628] + COc1cc2c(Oc3ccc(NC(=O)C4(C(=O)Nc5ccc(F)cc5)CC4)cc3F)ccnc2cc1OCCCN1CCOCC1 [Foretinib] (partner 0.25 µM)
Summary of the method: as §1

QS11 + Pemetrexed = compound: C1CC2=C(C1)C=C(C=C2)OC3=NC(=C4C(=N3)N(C=N4)CC5=CC=C(C=C5)C6=CC=CC=C6)N[C@@H](CC7=CC=CC=C7)CO [QS11] + Nc1nc2[nH]cc(CCc3ccc(C(=O)N[C@@H](CCC(=O)O)C(=O)O)cc3)c2c(=O)[nH]1 [Pemetrexed] (partner 0.2 µM)
Summary of the method: as §1

QS11 + Luminespib = compound: C1CC2=C(C1)C=C(C=C2)OC3=NC(=C4C(=N3)N(C=N4)CC5=CC=C(C=C5)C6=CC=CC=C6)N[C@@H](CC7=CC=CC=C7)CO [QS11] + CCNC(=O)c1noc(-c2cc(C(C)C)c(O)cc2O)c1-c1ccc(CN2CCOCC2)cc1 [Luminespib] (partner 0.01 µM)
Summary of the method: as §1

Cell Line | relative viability (Darinaparsin + OSI-027; first compound 0.08 µM) | relative viability (Darinaparsin + OSI-027; first compound 0.8 µM) | relative viability (Darinaparsin + OSI-027; first compound 2.53 µM) | relative viability (Darinaparsin + OSI-027; first compound 8 µM) | relative viability (AZ628 + Foretinib; first compound 0.08 µM) | relative viability (AZ628 + Foretinib; first compound 0.253 µM) | relative viability (AZ628 + Foretinib; first compound 0.8 µM) | relative viability (AZ628 + Foretinib; first compound 2.53 µM) | relative viability (AZ628 + Foretinib; first compound 8 µM) | relative viability (QS11 + Pemetrexed; first compound 0.08 µM) | relative viability (QS11 + Pemetrexed; first compound 0.253 µM) | relative viability (QS11 + Pemetrexed; first compound 0.8 µM) | relative viability (QS11 + Pemetrexed; first compound 2.53 µM) | relative viability (QS11 + Pemetrexed; first compound 8 µM) | relative viability (QS11 + Luminespib; first compound 0.08 µM) | relative viability (QS11 + Luminespib; first compound 0.253 µM) | relative viability (QS11 + Luminespib; first compound 0.8 µM) | relative viability (QS11 + Luminespib; first compound 2.53 µM) | relative viability (QS11 + Luminespib; first compound 8 µM)
NCI-H1793 | 0.329 | 0.254 | 0.27 | 0.309 | 0.669 | 0.83 | 0.787 | 0.487 | 0.384 | 0.725 | 0.777 | 1.11 | 1.1 | 0.85 | 0.137 | 0.177 | 0.171 | 0.189 | 0.158
HARA | 0.68 | 0.502 | 0.54 | 0.572 | 0.713 | 0.898 | 0.792 | 0.795 | 0.392 | 0.251 |  | 0.215 | 0.244 | 0.256 | 0.675 | 0.747 |  | 0.845 | 1.19
NCI-H2347 | 0.398 |  | 0.424 | 0.407 | 0.697 | 0.81 | 0.704 | 0.976 | 0.407 | 0.455 | 0.426 | 0.396 | 0.458 | 0.446 | 0.367 | 0.571 | 0.505 | 0.352 | 0.886
ABC-1 | 0.489 | 0.424 | 0.453 | 0.444 | 0.96 | 1.17 | 1.19 | 0.944 | 0.943 |  |  |  |  |  | 0.656 | 0.861 |  | 0.828 | 0.842
NCI-H2342 | 0.592 | 0.593 | 0.558 | 0.654 | 1.08 | 1.01 | 1.16 | 1.24 | 1.12 | 0.77 | 0.829 | 0.809 | 0.797 | 0.795 | 0.787 | 0.754 | 0.721 | 0.697 | 0.746
NCI-H2126 | 0.726 | 0.764 | 0.635 | 0.639 | 1.27 | 1.18 | 1.22 | 0.922 | 0.94 | 0.623 | 0.681 | 0.604 | 0.565 | 0.59 | 0.923 | 0.976 | 0.695 | 0.766 | 0.726
HOP-62 | 0.958 | 0.852 | 0.694 | 0.855 | 1.05 | 1.07 | 1.02 | 0.999 | 0.629 | 0.414 | 0.371 | 0.276 | 0.23 | 0.283 | 0.816 | 1.03 | 0.828 | 0.942 | 0.934
NCI-H2085 | 0.778 | 0.806 | 0.762 | 0.673 | 0.994 | 1.17 | 1.07 | 1.09 | 0.676 | 0.879 | 0.841 | 0.925 | 1.04 | 1.01 | 0.376 | 0.474 | 0.286 | 0.403 | 0.546
NCI-H1944 | 0.413 | 0.372 | 0.399 | 0.437 | 0.943 | 0.842 | 0.69 | 0.757 | 0.604 | 0.535 | 0.632 |  | 0.491 | 0.565 | 0.702 | 0.864 |  | 0.557 | 0.543
EMC-BAC-2 | 0.364 | 0.315 | 0.405 | 0.409 | 0.91 | 0.87 | 0.871 | 0.901 | 0.877 | 0.461 | 0.463 | 0.409 | 0.594 | 0.445 | 1.28 | 1.27 | 0.817 | 0.953 | 0.961
NCI-H2228 | 0.778 | 0.5 | 0.483 | 0.78 | 0.72 | 0.806 | 0.811 | 0.722 | 0.532 | 0.342 | 0.337 | 0.324 | 0.374 | 0.372 | 0.0998 | 0.191 | 0.154 | 0.14 | 0.145
A-427 | 0.424 | 0.445 | 0.466 | 0.582 | 0.996 | 0.872 | 0.542 | 0.643 | 0.34 | 0.967 | 0.985 |  | 0.989 | 0.979 | 0.918 | 0.885 |  | 1.02 | 1.05
EPLC-272H |  | 0.285 | 0.243 | 0.321 | 0.671 | 0.625 | 0.654 | 0.581 | 0.309 | 0.306 | 0.366 | 0.344 | 0.313 | 0.315 |  | 0.269 | 0.311 | 0.385 | 0.284
A549 |  |  |  |  | 0.931 | 0.824 | 0.816 | 0.956 | 0.34 |  |  |  |  |  |  |  |  |  | 
NCI-H358 | 0.988 | 0.76 | 0.846 | 0.793 | 0.538 | 0.472 | 0.373 | 0.466 | 0.323 | 0.167 | 0.175 | 0.146 | 0.186 | 0.168 | 0.435 | 0.457 | 0.479 | 0.414 | 0.444
NCI-H2009 | 0.61 | 0.657 | 0.584 | 0.587 | 1.02 | 0.861 | 0.704 | 0.573 | 0.355 | 1.08 | 1.06 | 1.01 | 0.978 | 0.985 | 1.01 | 1.15 | 0.823 | 0.905 | 0.935
HCC-827 | 0.705 | 0.837 | 0.626 | 0.766 | 0.982 | 0.933 | 0.967 | 1.02 | 0.715 | 0.262 | 0.274 | 0.258 | 0.257 | 0.35 | 0.587 | 0.508 | 0.597 | 0.694 | 0.675
NCI-H322M | 0.611 | 0.531 | 0.545 | 0.573 | 1.05 | 0.985 | 0.952 | 1.02 | 0.829 | 0.556 | 0.59 | 0.66 | 0.822 | 0.735 | 0.823 | 0.863 | 0.911 | 0.99 | 1.24
